Experiment [1] has as its system A. baumannii ATCC BAA747. The experiment in a line: MIC by broth microdilution. The format is cell-based. The protocol: (§1) MIC was determined by broth microdilution. Single-colony cultures were grown to exponential phase (OD600 of 0.5) aerobically at 37 °C. In case of strains from the Keio collection, 50 µg ml^−1 kanamycin was supplemented to the media to ascertain a homogeneous population. The bacterial suspensions were diluted 100-fold in CAMHB and 50 µl was added to a twofold serial dilution series of test compounds (50 µl per well) in polypropylene 96-well microtitre plates to reach a volume of 100 µl. The plates were sealed with breathable membranes and incubated overnight at 37 °C with constant shaking (600 r.p.m.). The MIC was determined as the lowest concentration at which no visible bacterial growth was observed as compared with the inoculum controls from the median of a minimum of triplicates.
For orientation: Dilution methods test growth across graded concentrations, often in twofold steps.

For experiment [2], the system named is P. aeruginosa ATCC 27853. The experiment in a line: MIC by broth microdilution. The format is cell-based. The protocol:
as §1

The test system of experiment [3] is S. aureus ATCC 29213 / ATCC BAA1717. The experiment in a line: MIC by broth microdilution. The experiment is classed as cell-based. On the procedure: as §1
The test system of experiment [4] is E. coli BW25113 and single-gene knockouts. Nature of the experiment: MIC on E. coli strains of the Keio collection. The settings on record: for MIC: Escherichia coli. The format is cell-based, Escherichia coli. The protocol:
as §1

Experiment [5] has as its system E. coli ATCC 25922. Nature of the experiment: MIC by broth microdilution. The experiment is classed as cell-based. On the procedure:
as §1, with “r.p.m.).” for “r.p.m.). The MIC was determined as the lowest concentration at which no visible bacterial growth was observed as compared with the inoculum controls from the median of a minimum of triplicates.”

Experiment [6] deals with 60-resistant (60-r) isolates of E. coli W3110. Nature of the experiment: microbe, parasite or virus in culture. The settings on record: for MIC: Escherichia coli. The format is cell-based, Escherichia coli. The protocol: as §1
The plates were incubated at 37 °C and checked for growth after 24 and 48 h. […] Nine colonies with an increased MIC were selected for further analysis and stored as glycerol stocks.

Experiment [7] deals with clinical isolates of E. coli. Nature of the experiment: MIC against clinical isolates and potentiation by 4 µM PMBN. The following applies: for MSC: with 4 µM PMBN; for MIC: Escherichia coli. The format is cell-based, Escherichia coli. The protocol: as §1, with “r.p.m.).” for “r.p.m.). The MIC was determined as the lowest concentration at which no visible bacterial growth was observed as compared with the inoculum controls from the median of a minimum of triplicates.”

The mark [8] stands for this setting: BW25113, JW3596 ΔrfaC, LPS disruption (genetic).
The mark [9] stands for this setting: BW25113, read-out: MIC E. coli BW25113, parent strain.
Setting [10] is: Acinetobacter baumannii, ATCCBAA747; read-out: MIC A. baumannii ATCC BAA747.
Setting [11] is: Pseudomonas aeruginosa, ATCC27853; read-out: MIC P. aeruginosa ATCC 27853.
Where [12] appears, read: Staphylococcus aureus; read-out: MIC S. aureus ATCC 29213.
Setting [13] is: Staphylococcus aureus; read-out: MIC S. aureus ATCC BAA1717.
Where [14] appears, read: Escherichia coli, ATCC25922; read-out: MIC E. coli ATCC 25922.
Setting [15] is: E. coli 1075, fold change in MIC after 4 µM PMBN.
[16] abbreviates: E. coli 552059.1, fold change in MIC after 4 µM PMBN.
Where [17] appears, read: E. coli 552060.1, fold change in MIC after 4 µM PMBN.
Setting [18] is: E. coli MVAST0072, fold change in MIC after 4 µM PMBN.
[19] abbreviates: E. coli NCTC13463, fold change in MIC after 4 µM PMBN.
[20] abbreviates: E. coli NCTC13846, fold change in MIC after 4 µM PMBN.
Setting [21] is: E. coli mcr-1, fold change in MIC after addition of 4 µM PMBN.
Where [22] appears, read: E. coli 1075 (MDR), read-out: MIC.
The mark [23] stands for this setting: E. coli 552059.1, read-out: MIC.
Setting [24] is: E. coli 552060.1, read-out: MIC.
Setting [25] is: E. coli MVAST0072 (MDR), read-out: MIC.
Where [26] appears, read: NCTC13463, E. coli NCTC13463 (ESBL), read-out: MIC.
The mark [27] stands for this setting: NCTC13846, E. coli NCTC13846 (MDR, mcr-1).

SMILES strings stand for the structures. In brackets after ≈: the same amount, converted by molar mass. Several values for one entry are separate records, joined by “and”; a condition that tells them apart may be missing. Equal entries are not always repeated. Where two headings read alike, the source gives them in different places.

Take `O=C(O)c1cn(C2CC2)c2cc(N3CCNCC3)c(F)cc2c1=O` [CIP, ciprofloxacin]: the MIC in experiment [1] (Acinetobacter baumannii, ATCCBAA747, read-out: MIC A. baumannii ATCC BAA747) is 0.755 µM (≈ 0.25 µg/mL); in experiment [2] (Pseudomonas aeruginosa, ATCC27853, read-out: MIC P. aeruginosa ATCC 27853) it was 0.377 µM (≈ 0.125 µg/mL); in experiment [3] (Staphylococcus aureus, read-out: MIC S. aureus ATCC 29213) it was 0.755 µM (≈ 0.25 µg/mL); in experiment [3] (Staphylococcus aureus, read-out: MIC S. aureus ATCC BAA1717), more than 0.755 µM; in experiment [4] (BW25113, JW3594 ΔrfaD), more than 0.048 µM; in experiment [4] (setting [8]) it was 0.024 µM (≈ 0.00795 µg/mL). For the same compound, the MIC turned out to be 0.024 µM (≈ 0.00795 µg/mL) in experiment [4] (BW25113, JW3600 ΔrfaY); 0.024 µM (≈ 0.00795 µg/mL) in experiment [4] (BW25113, JW3602 ΔrfaI); 0.048 µM (≈ 0.0159 µg/mL) in experiment [4] (BW25113, JW3605 ΔrfaP); 0.024 µM (≈ 0.00795 µg/mL) in experiment [4] (BW25113, JW5503 ΔTolC); 0.024 µM (≈ 0.00795 µg/mL) in experiment [4] (setting [9]); 0.024 µM (≈ 0.00795 µg/mL) in experiment [5] (Escherichia coli, ATCC25922, read-out: MIC E. coli ATCC 25922). In addition, the MIC was 0.024 µM and 0.0078 µg/mL in experiment [6] (E. coli W3110 60-r1); 0.024 µM and 0.0078 µg/mL in experiment [6] (E. coli W3110 60-r3); 0.024 µM and 0.0078 µg/mL in experiment [6] (E. coli W3110 60-r6).
On to `O=S(=O)(NCCNCc1ccc(-c2ccc(F)nc2)cc1)c1cccc2cnccc12` [Compound 60], for which the MIC in experiment [1] (setting [10]) is more than 50 µM; in experiment [2] (setting [11]) it was more than 50 µM; in experiment [3] (setting [12]), more than 50 µM; in experiment [3] (setting [13]), more than 50 µM; in experiment [4] (setting [9]) it was 6.25 µM (≈ 2.73 µg/mL); in experiment [5] (setting [14]), 12.5 µM (≈ 5.46 µg/mL). For the same compound, the MIC is more than 50 µM in experiment [7] (setting [22]); 50 µM in experiment [7] (setting [23]); 50 µM in experiment [7] (setting [24]); 50 µM in experiment [7] (setting [25]); 50 µM in experiment [7] (E. coli mcr-1 (MCR)); 12.5 µM in experiment [7] (setting [26]). The MIC is more than 50 µM in experiment [7] (setting [27]), more than 100 µM in experiment [6] (E. coli W3110 60-r1), 100 µM (≈ 43.7 µg/mL) in experiment [6] (E. coli W3110 60-r3) and more than 100 µM in experiment [6] (E. coli W3110 60-r6). Further, the FC is more than 2 in experiment [7] (setting [15]); 16 in experiment [7] (setting [16]); 16 in experiment [7] (setting [17]); 16 in experiment [7] (setting [18]); 8 in experiment [7] (setting [19]); more than 2 in experiment [7] (setting [20]). The FC in experiment [7] (setting [21]) is listed as 4. The MSC in experiment [7] (E. coli 1075) worked out at 25 µM; in experiment [7] (E. coli 552059.1), 3.1 µM; in experiment [7] (E. coli 552060.1), 3.1 µM; in experiment [7] (E. coli MVAST0072) it was 3.1 µM; in experiment [7] (E. coli NCTC13463), 1.6 µM; in experiment [7] (E. coli NCTC13846) it was 25 µM. Moreover, the MSC in experiment [7] (E. coli mcr-1) is reported as 12.5 µM. Moreover, the “increase in MIC in resistant colonies” value in experiment [6] (all nine colonies) was “at least an eightfold increase in MIC”.
For `O=S(=O)(NC[C@@H]1CC[C@H](c2ccc(-c3ccc(F)cc3)cc2)N1)c1cccc2cnccc12` [Compound 101], the MIC in experiment [1] (setting [10]) was 25 µM (≈ 11.5 µg/mL); in experiment [2] (setting [11]) it was more than 50 µM; in experiment [3] (setting [12]), more than 50 µM; in experiment [3] (setting [13]), more than 50 µM; in experiment [4] (setting [9]), 1.6 µM (≈ 0.738 µg/mL); in experiment [5] (setting [14]), 3.1 µM (≈ 1.43 µg/mL). The MIC was 50 µM in experiment [7] (setting [22]); 12.5 µM in experiment [7] (setting [23]); 12.5 µM in experiment [7] (setting [24]); 12.5 µM in experiment [7] (setting [25]); 3.1 µM in experiment [7] (setting [26]); 12.5 µM in experiment [7] (setting [27]). Besides, the MIC in experiment [6] (E. coli W3110 60-r1) is more than 50 µM; in experiment [6] (E. coli W3110 60-r3) it was 6.25 µM (≈ 2.88 µg/mL); in experiment [6] (E. coli W3110 60-r6), 3.1 µM (≈ 1.43 µg/mL). Besides, the FC in experiment [7] (setting [15]) was determined as 8; in experiment [7] (setting [16]), 16; in experiment [7] (setting [17]), 16; in experiment [7] (setting [18]) it was 16; in experiment [7] (setting [19]), 8; in experiment [7] (setting [20]), 4. Besides, the FC in experiment [7] (setting [21]) is given as 4. In addition, the MSC in experiment [7] (E. coli 1075) is on record as 6.25 µM; in experiment [7] (E. coli 552059.1), 0.8 µM; in experiment [7] (E. coli 552060.1) it was 0.8 µM; in experiment [7] (E. coli MVAST0072), 0.8 µM; in experiment [7] (E. coli NCTC13463), 0.4 µM; in experiment [7] (E. coli NCTC13846), 3.1 µM. Also, the MSC in experiment [7] (E. coli mcr-1) is 3.1 µM.
Turning to `O=S(=O)(NC[C@H]1CC[C@@H](c2ccc(-c3ccc(F)nc3)cc2)N1)c1cccc2cnccc12` [LEI-801], the “potency against ΔtolC efflux pump mutant” value in experiment [4] is listed as “No increase in potency”. Also, the MIC is 3.1 µM (≈ 1.43 µg/mL) in experiment [4] (BW25113, JW3594 ΔrfaD); 3.1 µM (≈ 1.43 µg/mL) in experiment [4] (setting [8]); more than 50 µM in experiment [4] (BW25113, JW3600 ΔrfaY); more than 50 µM in experiment [4] (BW25113, JW3602 ΔrfaI); 12.5 µM (≈ 5.78 µg/mL) in experiment [4] (BW25113, JW3605 ΔrfaP); more than 50 µM in experiment [4] (BW25113, JW5503 ΔTolC). Besides, in experiment [4] (setting [9]), the MIC is more than 50 µM.

Values taken from article PMC11374673, “Discovery of isoquinoline sulfonamides as allosteric gyrase inhibitors with activity against fluoroquinolone-resistant bacteria” (Nature Chemistry, 2024).
